Laboratory results: ChEMBL document CHEMBL1152246, “Design, synthesis and RNase A inhibition activity of catechin and epicatechin and nucleobase chimeric molecules” (Bioorg Med Chem Lett, 2008)
Calls of active or inactive are those of the source. The calls are words filed in the database; no cut-off is given here.

How the values were obtained:
[1] = target: T1, Ribonuclease pancreatic (Homo sapiens) (UniProt P07998); test: Inhibition of RNase A assessed as degradation of 28s and 18s rRNA at 0.476 mM after 6 hrs by agarose gel based assay
T1 sequence (whole entry): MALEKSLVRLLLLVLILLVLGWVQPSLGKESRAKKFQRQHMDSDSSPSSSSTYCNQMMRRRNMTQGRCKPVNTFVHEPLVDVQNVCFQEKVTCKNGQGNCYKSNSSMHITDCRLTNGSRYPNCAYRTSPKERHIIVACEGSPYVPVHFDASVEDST

[2] = target: T1, Ribonuclease pancreatic (Homo sapiens); test: Inhibition of RNase A assessed as degradation of 28s and 18s rRNA at 0.412 mM after 6 hrs by agarose gel based assay

| Activity [1] | Activity [2] | Compound |
| --- | --- | --- |
| Active | – | Nc1ncnc2c1ncn2CCn1cc(CO[C@H]2Cc3c(O)cc(O)cc3O[C@@H]2c2ccc(O)c(O)c2)nn1 |
| – | inactive | CCOC(=O)Cn1c(=O)c(C)cn(CCn2cc(CO[C@@H]3Cc4c(O)cc(O)cc4O[C@@H]3c3ccc(O)c(O)c3)nn2)c1=O |
| Active | – | Nc1ncnc2c1ncn2CCn1cc(CO[C@@H]2Cc3c(O)cc(O)cc3O[C@@H]2c2ccc(O)c(O)c2)nn1 |
| – | inactive | CCOC(=O)Cn1c(=O)c(C)cn(CCn2cc(CO[C@H]3Cc4c(O)cc(O)cc4O[C@@H]3c3ccc(O)c(O)c3)nn2)c1=O |
